Results on 21 molecules are retold here after patent US20230339937A1, “CONDENSED RING COMPOUNDS THAT INHIBIT H-PGDS” (SATO PHARMACEUTICAL CO., LTD., priority 2020, published 2023).

For the test, the target named is T1, Recombinant human H-PGDS (Homo sapiens, UniProt O60760).
T1 construct: made in house; host or cells: E. coli
The experiment in a line: H-PGDS inhibitory activity (prostaglandin D2 production from prostaglandin H2, measured by LC-MS/MS). The test is classed as biochemical. The following applies: recombinant human H-PGDS 1.0 nM expressed in E. coli; prostaglandin H2 25 μM; preincubated 15 minutes on ice, reacted on ice for 1 minute; concentration that inhibits prostaglandin D2 production by 50%. The gist of the method:
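Recombinant human H-PGDS (E. coli-expressed, 1.0 nM final) preincubated with compound 15 min on ice in 20 mM Tris-HCl pH 8.0, 2 mM MgCl2, 2 mM GSH, 0.5 mg/mL γ-globulin. Reaction with 25 µM PGH2 run 1 min on ice, stopped with FeCl2/citric acid, PGD2 quantified by LC-MS/MS. Activity expressed as % of DMSO control after subtracting non-enzymatic PGD2.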

T1 sequence (O60760 whole entry): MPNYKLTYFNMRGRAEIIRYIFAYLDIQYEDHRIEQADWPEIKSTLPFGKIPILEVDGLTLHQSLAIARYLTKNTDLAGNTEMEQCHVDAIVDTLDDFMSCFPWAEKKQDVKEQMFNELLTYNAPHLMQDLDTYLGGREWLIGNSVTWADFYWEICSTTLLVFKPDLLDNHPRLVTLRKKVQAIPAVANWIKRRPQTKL

As a reminder, the IC50 is the concentration at which inhibition is half-maximal. For `O=C(NC1CN(c2ccccn2)C1)c1ccc(-c2nccc3occc23)cc1` [Example 113, 4-(furo[3,2-c]pyridin-4-yl)-N-[1-(pyridin-2-yl)azetidin-3-yl]benzamide], the IC50 was found to be 2.5 nM.
As for `CCCCCCNC(=O)c1ccc(-c2nccc3occc23)cc1` [Example 76, 4-(furo[3,2-c]pyridin-4-yl)-N-hexylbenzamide], the figure is 13 nM; as for `O=C(NC12CCC(O)(CC1)CC2)c1ccc(-c2nccc3occc23)c(F)c1` [Example 345, 3-fluoro-4-(furo[3,2-c]pyridin-4-yl)-N-(4-hydroxybicyclo[2.2.2]octan-1-yl)benzamide], 1.2 nM.
As for `O=C(NC1CCCC1)c1ccc(-c2nccc3occc23)cc1` [Example 87, N-cyclopenthyl-4-(furo[3,2-c]pyridin-4-yl)benzamide], the figure is 12 nM; as for `O=C(NCc1ccccc1)c1ccc(-c2nccc3occc23)cc1` [Example 67, N-benzyl-4-(furo[3,2-c]pyridin-4-yl)benzamide], 27 nM.
As for `Cc1cc(=O)[nH]c(N2CCC(NC(=O)c3ccc(-c4nccc5occc45)cc3)CC2)n1` [Example 181, 4-(furo[3,2-c]pyridin-4-yl)-N-[1-(4-methyl-6-oxo-1,6-dihydropyrimidin-2-yl)piperidin-4-yl]benzamide], the figure is 1.2 nM; as for `O=C(N[C@H]1CC[C@H](N2CCCCC2=O)CC1)c1ccc(-c2nccc3occc23)cc1` [Example 300, 4-(furo[3,2-c]pyridin-4-yl)-N-[trans-4-(2-oxopiperidin-1-yl)cyclohexyl]benzamide], 4.7 nM; as for `CCC(O)CNC(=O)c1ccc(-c2nccc3occc23)cc1` (stereo not drawn) [Example 91, 4-(furo[3,2-c]pyridin-4-yl)-N-(2-hydroxybutyl) benzamide], 32 nM.
Take `O=C(NCCCN1CCS(=O)(=O)CC1)c1ccc(-c2nccc3[nH]ccc23)cc1` [Example 46, N-[3-(1,1-dioxidothiomorpholino)propyl]-4-(1H-pyrrolo[3,2-c]pyridin-4-yl)benzamide]: the IC50 came to 0.63 nM.
Then `CCn1nnnc1N1CCC(NC(=O)c2ccc(-c3nccc4occc34)cc2)CC1` [Example 239, N-[1-(1-ethyl-1H-tetrazol-5-yl)piperidin-4-yl]-4-(furo[3,2-c]pyridin-4-yl)benzamide], with 1.2 nM.
In the case of `O=C(N[C@H]1CC[C@H](C2(O)CC2)CC1)c1ccc(-c2nccc3occc23)c(F)c1` [Example 327, 3-fluoro-4-(furo[3,2-c]pyridin-4-yl)-N-[trans-4-(1-hydroxycyclopropyl)cyclohexyl]benzamide], the IC50 came out at 1.1 nM.
Then `COCCn1cc(CNC(=O)c2ccc(-c3nccc4[nH]ccc34)cc2)cn1` [Example 48, N-{[1-(2-methoxyethyl)-1H-pyrazol-4-yl]methyl}-4-(1H-pyrrolo[3,2-c]pyridin-4-yl)benzamide], with 0.72 nM; and `O=C(NCc1ccncc1)c1ccc(-c2nccc3occc23)cc1` [Example 72, 4-(furo[3,2-c]pyridin-4-yl)-N-(pyridin-4-ylmethyl) benzamide], with 12 nM; and `Cn1c(N2CCC(NC(=O)c3ccc(-c4nccc5occc45)cc3)CC2)nccc1=O` [Example 183, 4-(furo[3,2-c]pyridin-4-yl)-N-[1-(1-methyl-6-oxo-1,6-dihydropyrimidin-2-yl)piperidin-4-yl]benzamide], with 1.7 nM.
As for `Cn1nnnc1N1CCC(NC(=O)c2ccc(-c3nccc4occc34)c(F)c2)CC1` [Example 323, 3-fluoro-4-(furo[3,2-c]pyridin-4-yl)-N-[1-(1-methyl-1H-tetrazol-5-yl)piperidin-4-yl]benzamide], the figure is 1.1 nM.
Then `Cc1nn(C)c(C)c1CNC(=O)c1ccc(-c2nccc3[nH]ccc23)cc1` [Example 40, 4-(1H-pyrrolo[3,2-c]pyridin-4-yl)-N-[(1,3,5-trimethyl-1H-pyrazol-4-yl)methyl] benzamide], with 0.89 nM.
With `O=C(NC1CCc2ccccc21)c1ccc(-c2nccc3occc23)cc1` (stereo not drawn) [Example 97, N-(2,3-dihydro-1H-inden-1-yl)-4-(furo[3,2-c]pyridin-4-yl)benzamide], the IC50 was found to be 2.8 nM.
As for `Cn1nccc1N1CCC(NC(=O)c2ccc(-c3nccc4occc34)cc2)CC1` [Example 250, 4-(furo[3,2-c]pyridin-4-yl)-N-[1-(1-methyl-1H-pyrazol-5-yl)piperidin-4-yl]benzamide], the figure is 3.2 nM.
As for `O=C(N[C@H]1CCN(c2ccc(CO)cn2)C1)c1ccc(-c2nccc3occc23)cc1` [Example 197, (S)-4-(furo[3,2-c]pyridin-4-yl)-N-{1-[5-(hydroxymethyl)pyridin-2-yl]pyrrolidin-3-yl}benzamide], the figure is 6.1 nM.
`O=C(NC1CCN(c2ncc(CO)o2)CC1)c1ccc(-c2nccc3occc23)cc1` [Example 255, 4-(furo[3,2-c]pyridin-4-yl)-N-{1-[5-(hydroxymethyl)oxazol-2-yl]piperidin-4-yl}benzamide]: the IC50 was 1.5 nM.
As for `O=C(NC1CCC2(CC1)COC2)c1ccc(-c2nccc3occc23)cc1` [Example 284, 4-(furo[3,2-c]pyridin-4-yl)-N-(2-oxaspiro[3.5]nonan-7-yl)benzamide], the figure is 1.7 nM.
